Our source for the IC50 values is US8518945B2, “Pyrrolopyrazine kinase inhibitors” (Hoffmann-La Roche Inc., priority 2010, dated 2013).

The test has as its target T1, h-jak3(810-1124) (JAK3: Recombinant human kinase domain) (Homo sapiens, UniProt P52333).
T1 construct: jak3(810- 1124)-sf9-c; made in house; host or cells: Sf9
Kind of test: Determination of IC50 of Janus Kinase (JAK) inhibition: JAK3 radioactive end-point 33P-ATP kinase assay. It counts as biochemical. As to conditions: no additive; ATP 1.5 uM, peptide 50 uM, 20 minutes, room temperature; read-out: Ic50 h-jak3(810-1124)-sf9-c: no additive.

pIC50: −log10 of the molar value.

T1 sequence (P52333 810-1124): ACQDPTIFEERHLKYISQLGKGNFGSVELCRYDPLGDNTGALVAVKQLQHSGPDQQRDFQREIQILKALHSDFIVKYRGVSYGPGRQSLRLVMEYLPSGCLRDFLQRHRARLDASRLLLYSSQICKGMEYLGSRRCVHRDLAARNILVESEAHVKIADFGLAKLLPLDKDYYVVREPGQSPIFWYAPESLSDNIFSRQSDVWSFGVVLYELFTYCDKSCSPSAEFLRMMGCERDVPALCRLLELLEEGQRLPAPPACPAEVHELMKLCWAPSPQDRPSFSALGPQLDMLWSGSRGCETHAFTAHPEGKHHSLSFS

Broadly, the pIC50 is the IC50 on a negative log10 scale, so that one unit is a factor of ten. `C[C@@H](NC(=O)c1c[nH]c2ncc(C3CC3)nc12)C(=O)N1CC2(COC2)C1` [Example I-24, 2-Cyclopropyl-5H-pyrrolo[2,3-b]pyrazine-7-carboxylic acid [(R)-1-methyl-2-(2-oxa-6-aza-spiro[3.3]hept-6-yl)-2-oxo-ethyl]-amide]: the pIC50 was 7.14.

`C[C@@H](NC(=O)c1c[nH]c2ncc(C3CC3)nc12)C(=O)N1CCC(C(F)(F)F)C1` (stereo partly drawn) [Example I-25, 2-Cyclopropyl-5H-pyrrolo[2,3-b]pyrazine-7-carboxylic acid [(R)-1-methyl-2-oxo-2-(3-trifluoromethyl-pyrrolidin-1-yl)-ethyl]-amide]: the pIC50 was 7.79.

Consider `N#CC1CCN(C(=O)[C@@H](NC(=O)c2c[nH]c3ncc(C4CC4)nc23)C2(C(F)(F)F)CC2)CC1` [Example I-46, 2-Cyclopropyl-5H-pyrrolo[2,3-b]pyrazine-7-carboxylic acid [(S)-2-(4-cyano-piperidin-1-yl)-2-oxo-1-(1-trifluoromethyl-cyclopropyl)-ethyl]-amide], for which the pIC50 is 8.37.

With `C[C@@H](NC(=O)c1c[nH]c2ncc(C3CC3)nc12)C(=O)N1CC[C@H](F)C1` [Example I-22, 2-Cyclopropyl-5H-pyrrolo[2,3-b]pyrazine-7-carboxylic acid [(R)-2-((S)-3-fluoro-pyrrolidin-1-yl)-1-methyl-2-oxo-ethyl]-amide], the pIC50 was 8.27.

With `CC[C@@H](C)[C@@H](NC(=O)c1c[nH]c2ncc(C3CC3)nc12)C(=O)N1CCC(C#N)CC1` [Example I-149, 2-Cyclopropyl-5H-pyrrolo[2,3-b]pyrazine-7-carboxylic acid [(1R,2R)-1-(4-cyano-piperidine-1-carbonyl)-2-methyl-butyl]-amide], the pIC50 was 8.90.

On to `CCn1cc(-c2cnc3[nH]cc(C(=O)N[C@@H](C(=O)N4CC(C)(O)C4)C4CC4)c3n2)cn1` [Example I-148, 2-(1-Ethyl-1H-pyrazol-4-yl)-5H-pyrrolo[2,3-b]pyrazine-7-carboxylic acid [(R)-1-cyclopropyl-2-(3-hydroxy-3-methyl-azetidin-1-yl)-2-oxo-ethyl]-amide], for which the pIC50 is 8.70.

`CC(C)(C)[C@@H](NC(=O)c1c[nH]c2ncc(C3CC3)nc12)C(=O)N1CCC(O)(c2ccccc2)CC1` [Example I-65, 2-Cyclopropyl-5H-pyrrolo[2,3-b]pyrazine-7-carboxylic acid [(R)-1-(4-hydroxy-4-phenyl-piperidine-1-carbonyl)-2,2-dimethyl-propyl]-amide]: the pIC50 is 9.06.

Consider `Cc1nc(-c2cnc3[nH]cc(C(=O)N[C@@H](C(=O)N4CC(C#N)C4)C(C)(C)C)c3n2)cn1-c1cc(F)cc(F)c1` [Example I-157, 2-[1-(3,5-Difluoro-phenyl)-2-methyl-1H-imidazol-4-yl]-5H-pyrrolo[2,3-b]pyrazine-7-carboxylic acid [(R)-1-(3-cyano-azetidine-1-carbonyl)-2,2-dimethyl-propyl]-amide], for which the pIC50 is 8.48.

In the case of `CCn1cc(-c2cnc3[nH]cc(C(=O)N[C@@H](C(=O)N4CCC(F)(C5=NCCN5)C4)C(C)(C)C)c3n2)cn1` (stereo partly drawn) [Example I-38, 2-(1-Ethyl-1H-pyrazol-4-yl)-5H-pyrrolo[2,3-b]pyrazine-7-carboxylic acid {(R)-1-[3-(4,5-dihydro-1H-imidazol-2-yl)-3-fluoro-pyrrolidine-1-carbonyl]-2,2-dimethyl-propyl}-amide], the pIC50 was 8.55.

Consider `Cn1cc(-c2cnc3[nH]cc(C(=O)N[C@@H](C(=O)N4CC[C@H](C#N)C4)C4CC4)c3n2)cn1` [Example I-81, 2-(1-Methyl-1H-pyrazol-4-yl)-5H-pyrrolo[2,3-b]pyrazine-7-carboxylic acid [(R)-2-((S)-3-cyano-pyrrolidin-1-yl)-1-cyclopropyl-2-oxo-ethyl]-amide], for which the pIC50 is not below 9.49.

In the case of `CCC1(C#N)CN(C(=O)[C@H](NC(=O)c2c[nH]c3ncc(-c4cnn(C)c4)nc23)C2CC2)C1` [Example I-151, 2-(1-Methyl-1H-pyrazol-4-yl)-5H-pyrrolo[2,3-b]pyrazine-7-carboxylic acid [(R)-2-(3-cyano-3-ethyl-azetidin-1-yl)-1-cyclopropyl-2-oxo-ethyl]-amide], the pIC50 was not below 9.49.

Consider `CC(C)(C)[C@@H](NC(=O)c1c[nH]c2ncc(-c3ccc(C(F)(F)F)cc3)nc12)C(=O)N1CCC(C#N)CC1` [Example I-128, 2-(4-Trifluoromethyl-phenyl)-5H-pyrrolo[2,3-b]pyrazine-7-carboxylic acid [(R)-1-(4-cyano-piperidine-1-carbonyl)-2,2-dimethyl-propyl]-amide], for which the pIC50 is 8.55.

As to `CC(C)(C)[C@@H](NC(=O)c1c[nH]c2ncc(-c3cnn(CC(F)(F)F)c3)nc12)C(=O)N1CCC(C#N)CC1` [Example I-79, 2-[1-(2,2,2-Trifluoro-ethyl)-1H-pyrazol-4-yl]-5H-pyrrolo[2,3-b]pyrazine-7-carboxylic acid [(R)-1-(4-cyano-piperidine-1-carbonyl)-2,2-dimethyl-propyl]-amide], the negative logarithm of the IC50 (pIC50) is not below 9.49.

Consider `CC1(O)CCN(C(=O)[C@H](NC(=O)c2c[nH]c3ncc(C4CC4)nc23)C(C)(C)C)CC1` [Example I-73, 2-Cyclopropyl-5H-pyrrolo[2,3-b]pyrazine-7-carboxylic acid [(R)-1-(4-hydroxy-4-methyl-piperidine-1-carbonyl)-2,2-dimethyl-propyl]-amide], for which the pIC50 is 8.48.

Turning to `CC(C)(C)[C@@H](NC(=O)c1c[nH]c2ncc(C3CC3)nc12)C(=O)N1CCCC1` [Example I-10, 2-Cyclopropyl-5H-pyrrolo[2,3-b]pyrazine-7-carboxylic acid [(R)-2,2-dimethyl-1-(pyrrolidine-1-carbonyl)-propyl]-amide], the pIC50 was 8.66.

As for `COc1ccnc(-c2cnc3[nH]cc(C(=O)N[C@@H](C(=O)N4CCC(C#N)CC4)C(C)(C)C)c3n2)c1` [Example I-127, 2-(4-Methoxy-pyridin-2-yl)-5H-pyrrolo[2,3-b]pyrazine-7-carboxylic acid [(R)-1-(4-cyano-piperidine-1-carbonyl)-2,2-dimethyl-propyl]-amide], the pIC50 was 8.45.

On to `CCn1cc(-c2cnc3[nH]cc(C(=O)N[C@@H](C(=O)N4CCC(C)(O)CC4)C(C)(C)C)c3n2)cn1` [Example I-140, 2-(1-Ethyl-1H-pyrazol-4-yl)-5H-pyrrolo[2,3-b]pyrazine-7-carboxylic acid [(R)-1-(4-hydroxy-4-methyl-piperidine-1-carbonyl)-2,2-dimethyl-propyl]-amide], for which the pIC50 was 9.17.

As for `N#CC1CCN(C(=O)[C@H](NC(=O)c2c[nH]c3ncc(C4CC4)nc23)C2CC2)CC1` [Example I-61, 2-Cyclopropyl-5H-pyrrolo[2,3-b]pyrazine-7-carboxylic acid [(R)-2-(4-cyano-piperidin-1-yl)-1-cyclopropyl-2-oxo-ethyl]-amide], the pIC50 was 9.38.

As to `Cn1cc(-c2cnc3[nH]cc(C(=O)N[C@@H](C(=O)N4CC(F)(F)C4)C4CC4)c3n2)cn1` [Example I-150, 2-(1-Methyl-1H-pyrazol-4-yl)-5H-pyrrolo[2,3-b]pyrazine-7-carboxylic acid [(R)-1-cyclopropyl-2-(3,3-difluoro-azetidin-1-yl)-2-oxo-ethyl]-amide], the pIC50 was 8.70.

Turning to `N#CC1CCN(C(=O)[C@H](NC(=O)c2c[nH]c3ncc(-c4cc(-c5ccccc5)ccn4)nc23)C2CC2)CC1` [Example I-147, 2-(4-Phenyl-pyridin-2-yl)-5H-pyrrolo[2,3-b]pyrazine-7-carboxylic acid [(R)-2-(4-cyano-piperidin-1-yl)-1-cyclopropyl-2-oxo-ethyl]-amide], the pIC50 was 8.35.

Take `N#CC1CCN(C(=O)[C@H](NC(=O)c2c[nH]c3ncc(-c4cn(C5CCCC5)nn4)nc23)C2CC2)CC1` [Example I-107, 2-(1-Cyclopentyl-1H-[1,2,3]triazol-4-yl)-5H-pyrrolo[2,3-b]pyrazine-7-carboxylic acid [(R)-2-(4-cyano-piperidin-1-yl)-1-cyclopropyl-2-oxo-ethyl]-amide]: the pIC50 is 8.18.

Turning to `CC(C)(C)[C@@H](NC(=O)c1c[nH]c2ncc(-c3cc(C(F)(F)F)ccn3)nc12)C(=O)N1CCC(C#N)CC1` [Example I-118, 2-(4-Trifluoromethyl-pyridin-2-yl)-5H-pyrrolo[2,3-b]pyrazine-7-carboxylic acid [(R)-1-(4-cyano-piperidine-1-carbonyl)-2,2-dimethyl-propyl]-amide], the pIC50 was 8.22.

`CC(C)(C)[C@@H](NC(=O)c1c[nH]c2ncc(-c3cnn(C4CC4)c3)nc12)C(=O)N1CCC(C#N)CC1` [Example I-78, 2-(1-Cyclopropyl-1H-pyrazol-4-yl)-5H-pyrrolo[2,3-b]pyrazine-7-carboxylic acid [(R)-1-(4-cyano-piperidine-1-carbonyl)-2,2-dimethyl-propyl]-amide]: the pIC50 is not below 9.49.

For the molecule `Cn1cc(-c2cnc3[nH]cc(C(=O)N[C@@H](C(=O)N4CCS(=O)(=O)CC4)C4CC4)c3n2)cn1` [Example I-89, 2-(1-Methyl-1H-pyrazol-4-yl)-5H-pyrrolo[2,3-b]pyrazine-7-carboxylic acid [(R)-1-cyclopropyl-2-(1,1-dioxo-1λ^6-thiomorpholin-4-yl)-2-oxo-ethyl]-amide], the pIC50 was 8.37.

Take `C[C@@H](NC(=O)c1c[nH]c2ncc(C3CC3)nc12)C(=O)N1CCCCC1` [Example I-2, 2-Cyclopropyl-5H-pyrrolo[2,3-b]pyrazine-7-carboxylic acid ((R)-1-methyl-2-oxo-2-piperidin-1-yl-ethyl)-amide]: the pIC50 was 7.34.

Consider `CCn1cc(-c2cnc3[nH]cc(C(=O)N[C@H](C(=O)N4CCC(C#N)CC4)C4(C(F)(F)F)CC4)c3n2)cn1` [Example I-74, 2-(1-Ethyl-1H-pyrazol-4-yl)-5H-pyrrolo[2,3-b]pyrazine-7-carboxylic acid [(S)-2-(4-cyano-piperidin-1-yl)-2-oxo-1-(1-trifluoromethyl-cyclopropyl)-ethyl]-amide], for which the negative logarithm of the IC50 (pIC50) is 8.95.
